Source: paper PMC4414177, “A novel orally active water-soluble inhibitor of human glutathione transferase exerts a potent and selective antitumor activity against human melanoma xenografts” (Oncotarget, 2015)

Key:
SK23-MEL cells [1] = test: Annexin V / PI staining (flow cytometry); type: cell-based, human; settings: 48 hrs of treatment
Protocol: (§1) A375 and SK23-MEL cells, were fixed with 70% ethanol overnight, stained with PI staining buffer ([…] and 1% Triton X-100) and analyzed by a FACSCalibur (BD Bioscence, San Jose, CA, USA). The percentage of early apoptotic, late apoptotic, and necrotic cells was determined by simultaneous staining of cells with PI (2 μg/ml) and Annexin V-FITC (0.5 μg/ml) (Sigma Aldrich), according to manufacturer's protocol. Flow cytometric data were analyzed by the FlowJo 8.8.6 software (Tree Stare, Inc, Ashland, OR, USA).

A375 cells [2] = test: Annexin V / PI staining (flow cytometry); type: cell-based, human
Protocol: as §1

SK23-MEL cells [3] = test: Caspase-3 activity in cell lysates; type: cell-based, human; settings: 7 μM
Protocol: (§2) Apoptosis was confirmed by measuring caspase-3 activity, at 25°C, in total cell lysates, using the model fluorescent peptide substrate N-Acetyl-Asp-Glu-Val-Asp-7-amido-4-trifluoromethylcoumarin (Ac-DEVD-AFC). […] Caspase activity was expressed as change in fluorescence per min, per 10^6 cells.

A375 cells [4] = test: Caspase-3 activity in cell lysates; type: cell-based, human; settings: A375, 10 μM
Protocol: as §2

SK23-MEL cells [5] = test: Cell cycle analysis (PI, flow cytometry); type: cell-based, human; settings: 7 μM
Protocol: as §1

A375 cells [6] = test: Cell cycle analysis (PI, flow cytometry); type: cell-based, human; settings: A375, 10 μM
Protocol: as §1

A375 human melanoma = test: A375 fragment xenograft model, antitumor efficacy; type: in vivo, mice; settings: MC3181 i.v. 8mg/kg/d q1dx5 three weeks
Protocol: With regard to the in vivo fragment tumor model, A375 cells were injected (1×10^7) subcutaneously (s.c.) into the right flank of an athymic Nude-Foxn1nu female mouse, and the established primary tumor was then removed and cut into fragments (2–3 mm diameter) and implanted s.c. into recipient mice. Animals were randomly divided in groups of 7 mice and treatment was initiated when a tumor volume of 0.12 ± 0.01 cm^3 (mean ± SEM) was reached.
The reference drug temozolomide, dissolved in DMSO/PBS 1:1 to a final concentration of 10 mg/ml, was administered i.p. q1dx5 at a dose of 100mg/kg/day.
Primary tumor growth was determined for all animals by caliper measurement (minor and major axis length), three times per week, until they were sacrificed. Primary tumor volume was determined using the following equation: V (cm^3)=(α^2×β)/2 (Eq. 3)
The efficacy of the treatment was also analyzed by calculation of the percentage of Increase in Life Span (% ILS), since this analysis gives an evidence of clinical potency. Survival endpoint for each animal was fixed at the day when tumor volume reached 1.0 cm^3 (A375) or 0.4 cm^3 (SK23-MEL and G-361), and data were used to plot the relative Kaplan-Meier curves. Treatment efficacy was then evaluated by comparing the Median Survival Time (MST) of treated group with the MST of control group, and expressed as percentage of ILS: % ILS=[100×(MSTtreated group)/(MSTcontrol group)]−100 (Eq. 4)
Treatment was considered effective when % ILS > 20%.

A375 cells [7] = test: JNK phospho-activation (Western blot); type: cell-based, human; settings: A375, 10 μM
Protocol: The cell pellet obtained at each time point was lysed as previously reported and the protein concentration was determined using the Lowry colorimetric assay. Proteins (40 μg) were loaded on 12% SDS-polyacrylamide gel and transferred onto a PVDF membrane (GE Healthcare, Chalfont St. Giles, UK). Anti-P-JNK (Thr183 Tyr185) (Cell Signaling, Beverly, MA, USA), anti-JNK (Cell Signaling) and anti-β actin were used as primary antibodies. […] The ImageJ software was used to analyze the band intensities.

In the case of O=[N+]([O-])c1ccc(SCCOCCOCCO)c2nonc12 [MC3181, 2-(2-(2-((7-nitrobenzo[c][1,2,5]oxadiazol-4-yl)thio)ethoxy)ethoxy)ethanol], the “percentage of total apoptotic cells” value (SK23-MEL cells [1]) is reported as “about 20%”, the “percentage of total apoptotic cells” value (A375 cells [2]; A375, 24 hrs post-treatment) is reported as “approximately 23%” and the “percentage of total apoptotic cells” value (A375 cells [2]; A375, 48 hrs post-treatment) is reported as ~37%. The caspase-3 activation (SK23-MEL cells [3]) was “negligible increase of proteolitic activity”, the caspase-3 activation (A375 cells [4]) was “strong caspase-3 activity” and the “increase in the number of cells in sub-G1 phase” value (SK23-MEL cells [5]; 24 hrs) was “about 10%”. The “increase in the number of cells in sub-G1 phase” value (SK23-MEL cells [5]; 48 hrs) was ~20%, the “increase in the amount of cells in the sub-G1 phase” value (A375 cells [6]; 24 hrs) was “about 27%” and the “increase in the amount of cells in the sub-G1 phase” value (A375 cells [6]; 48 hrs) was ~36%. For the same compound, the “%ILS” value (A375 human melanoma; TMZ i.p. 100 mg/kg/d q1dx5) was 53%, the tumor growth (A375 human melanoma; TMZ i.p. 100 mg/kg/d q1dx5, from day 13 onward, P < 0.05) was “significantly delayed tumor growth” and the JNK phosphorylation (A375 cells [7]) was “sustained increase in JNK phosphorylation”. For the same compound, the “start of the increase in JNK phosphorylation after addition of the drug” value (A375 cells [7]) was ≤ 1 h.
